From ChEMBL document CHEMBL1144367, “QSAR for anti-RNA-virus activity, synthesis, and assay of anti-RSV carbonucleosides given a unified representation of spectral moments, quadratic, and topologic indices” (2005)
In brackets after ≈: the same amount, converted by molar mass.

Experiments:
Assay type in all cases: functional
Conditions in all cases: Homo sapiens
HeLa [1] = test: Minimum inhibitory concentration against coxsackie virus B4 was determined
HeLa [2] = test: Minimum inhibitory concentration against vesicular stomatitis virus was determined
HeLa [3] = test: Minimum inhibitory concentration against respiratory syncytial virus was determined
HeLa [4] = test: Minimum cytotoxicity concentration to HeLa cell line was determined

Compound	MIC50 (HeLa [1]) [µg/mL]	MIC50 (HeLa [2]) [µg/mL]	MIC50 (HeLa [3]) [µg/mL]	MCC (HeLa [4]) [µg/mL]
NC(=O)c1ncn([C@@H]2O[C@H](CO)[C@@H](O)[C@H]2O)n1 [RIBAVIRIN]	48 (≈ 197 µM)	16 (≈ 65.5 µM)	1.92 (≈ 7.86 µM)	> 400
OC[C@@H]1CCCC[C@@H]1N1C=NC2C(Cl)=NC=NC21 (some centres undefined)	> 80		> 80	400
NC1=NC2C(N=CN2[C@H]2CCCC[C@H]2CO)C(Cl)=N1 (some centres undefined)	120 (≈ 423 µM)	> 200	8 (≈ 28.2 µM)	> 200
NC1=NC=NC2C1N=CN2[C@H]1CCCC[C@H]1CO (some centres undefined)	> 80		3.2 (≈ 12.8 µM)	400
